Results taken from the supplement of paper PMC10627819.

Experiments:
B. subtilis 168 [1] = experiment: fitness (endpoint OD595 vs no drug) (fraction); higher = more growth
How it was run: (§1)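 Fitness was measured as bacterial growth in 384-well plates inoculated at OD595 0.01 (30 µl, or 55 µl for S. pneumoniae). Media were TSB, LB Lennox or CY, at 37 °C. OD595 was read every 30 min for 14 h and background-subtracted against the first reading. Fitness is OD595 at the transition into stationary phase divided by the robust mean of no-drug control wells, capped at 1.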

S. aureus Newman [2] = experiment: as above
How it was run: as §1

S. pneumoniae D39V [3] = experiment: as above
How it was run: as §1

S. aureus DSM 20231 = experiment: Bliss interaction score (quartile over a dose matrix) (fitness difference); higher = more antagonism (negative = synergy)
How it was run: (§2)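 Growth was read as OD595 when cultures entered stationary phase, and each value was divided by the plate's robust no-drug mean and capped at 1. This normalised ratio is the fitness value, and fitness for each single drug came from the combination data. The Bliss score subtracts the expected fitness, taken as the product, from the observed fitness and is given as quartiles across technical, biological and donor/recipient replicates.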

B. subtilis 168 [4] = experiment: as above
How it was run: as §2

S. aureus Newman [5] = experiment: as above
How it was run: as §2

S. pneumoniae D39V [6] = experiment: as above
How it was run: as §2
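Throughout, for Bliss interaction score (quartile over a dose matrix): first quartile when negative (synergy) and third quartile when positive (antagonism).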
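Throughout, for fitness (endpoint OD595 vs no drug): OD595 on entry to stationary phase over no-drug wells; at most 1.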

COc1ccc(C[C@H](N)C(=O)N[C@H]2[C@@H](O)[C@H](n3cnc4c(N(C)C)ncnc43)O[C@@H]2CO)cc1 [Puromycin] + CN(C)c1cc(NC(=O)CNC(C)(C)C)c(O)c2c1C[C@H]1C[C@H]3[C@H](N(C)C)C(O)=C(C(N)=O)C(=O)[C@@]3(O)C(O)=C1C2=O [Tigecycline]
fitness
Settings	first compound 0.39 µg/mL	first compound 0.78 µg/mL	first compound 1 µg/mL	first compound 1.56 µg/mL	first compound 2 µg/mL	first compound 4 µg/mL
B. subtilis 168 [1], partner 0.039 µg/mL	0.945	0.976	–	0.953	–	–
B. subtilis 168 [1], partner 0.078 µg/mL	0.945	0.925	–	0.958	–	–
B. subtilis 168 [1], partner 0.156 µg/mL	0.895	0.964	–	0.924	–	–
S. aureus Newman [2], partner 0.039 µg/mL	≥ 1	0.999	–	0.985	–	–
S. aureus Newman [2], partner 0.078 µg/mL	≥ 1	0.995	–	0.995	–	–
S. aureus Newman [2], partner 0.156 µg/mL	≥ 1	0.991	–	≥ 1	–	–
S. pneumoniae D39V [3], partner 0.65 µg/mL	–	–	0.921	–	0.892	0.723
S. pneumoniae D39V [3], partner 1.3 µg/mL	–	–	0.927	–	0.931	0.71
S. pneumoniae D39V [3], partner 2.6 µg/mL	–	–	≥ 1	–	0.941	0.797

fitness, B. subtilis 168 [1], one replicate
Settings	first compound 0.39 µg/mL	first compound 0.78 µg/mL	first compound 1.56 µg/mL
partner 0.125 µg/mL	≥ 1	0.997	≥ 1
partner 0.25 µg/mL	0.862	0.938	0.92
partner 0.5 µg/mL	0.908	0.893	0.903

Settings	Bliss interaction score
B. subtilis 168 [4]	-0.044
S. aureus DSM 20231	0.0709
S. aureus Newman [5]	0.0585
S. pneumoniae D39V [6]	0.062

COc1cccc2c1C(=O)c1c(O)c3c(c(O)c1C2=O)C[C@@](O)(C(=O)CO)C[C@@H]3O[C@H]1C[C@H](N)[C@H](O)[C@H](C)O1 [Doxorubicin] + CC(C1CCC(C(O1)OC2C(CC(C(C2O)OC3C(C(C(CO3)(C)O)NC)O)N)N)N)NC [Gentamicin]
main component drawn
Settings	fitness
B. subtilis 168 [1], first compound 0.625 µg/mL, partner 0.0625 µg/mL	0.905
B. subtilis 168 [1], first compound 0.625 µg/mL, partner 0.25 µg/mL	0.079
B. subtilis 168 [1], first compound 1.25 µg/mL, partner 0.0625 µg/mL	0.804
B. subtilis 168 [1], first compound 1.25 µg/mL, partner 0.25 µg/mL	0.086
B. subtilis 168 [1], first compound 2.5 µg/mL, partner 0.25 µg/mL	0.0548
S. aureus Newman [2], first compound 0.625 µg/mL, partner 0.375 µg/mL	0.753
S. aureus Newman [2], first compound 0.625 µg/mL, partner 0.5 µg/mL	0.841
S. aureus Newman [2], first compound 0.625 µg/mL, partner 0.75 µg/mL	0.778
S. aureus Newman [2], first compound 0.625 µg/mL, partner 1 µg/mL	0.937
S. aureus Newman [2], first compound 0.625 µg/mL, partner 1.5 µg/mL	0.777
S. aureus Newman [2], first compound 0.625 µg/mL, partner 2 µg/mL	0.875
S. aureus Newman [2], first compound 1.25 µg/mL, partner 0.375 µg/mL	0.794
S. aureus Newman [2], first compound 1.25 µg/mL, partner 0.5 µg/mL	0.783
S. aureus Newman [2], first compound 1.25 µg/mL, partner 0.75 µg/mL	0.784
S. aureus Newman [2], first compound 1.25 µg/mL, partner 1 µg/mL	0.826
S. aureus Newman [2], first compound 1.25 µg/mL, partner 1.5 µg/mL	0.793
S. aureus Newman [2], first compound 1.25 µg/mL, partner 2 µg/mL	0.887
S. aureus Newman [2], first compound 2.5 µg/mL, partner 0.375 µg/mL	0.774
S. aureus Newman [2], first compound 2.5 µg/mL, partner 0.5 µg/mL	0.734
S. aureus Newman [2], first compound 2.5 µg/mL, partner 0.75 µg/mL	0.788
S. aureus Newman [2], first compound 2.5 µg/mL, partner 1 µg/mL	0.779
S. aureus Newman [2], first compound 2.5 µg/mL, partner 1.5 µg/mL	0.796
S. aureus Newman [2], first compound 2.5 µg/mL, partner 2 µg/mL	0.809
S. pneumoniae D39V [3], first compound 0.25 µg/mL, partner 2 µg/mL	0.919
S. pneumoniae D39V [3], first compound 0.25 µg/mL, partner 4 µg/mL	0.919
S. pneumoniae D39V [3], first compound 0.25 µg/mL, partner 8 µg/mL	0.882
S. pneumoniae D39V [3], first compound 0.5 µg/mL, partner 2 µg/mL	0.937
S. pneumoniae D39V [3], first compound 0.5 µg/mL, partner 4 µg/mL	0.943
S. pneumoniae D39V [3], first compound 0.5 µg/mL, partner 8 µg/mL	0.848
S. pneumoniae D39V [3], first compound 1 µg/mL, partner 2 µg/mL	0.806
S. pneumoniae D39V [3], first compound 1 µg/mL, partner 4 µg/mL	0.822
S. pneumoniae D39V [3], first compound 1 µg/mL, partner 8 µg/mL	0.76

main component drawn
Settings	Bliss interaction score
B. subtilis 168 [4]	-0.258
S. aureus DSM 20231	0.037
S. aureus Newman [5]	-0.0672
S. pneumoniae D39V [6]	0.0449

O=C(O)c1cn(C2CC2)c2cc(N3CCNCC3)c(F)cc2c1=O [Ciprofloxacin] + CCN(CC)CCOC(=O)c1ccc(N)cc1 [Procaine]
fitness
Settings	partner 85.5 µg/mL	partner 171 µg/mL	partner 342 µg/mL
B. subtilis 168 [1], first compound 0.0098 µg/mL	0.883	0.918	0.918
B. subtilis 168 [1], first compound 0.0195 µg/mL	0.688	0.755	0.721
B. subtilis 168 [1], first compound 0.039 µg/mL	0.0386	0.0363	0.0396
S. aureus Newman [2], first compound 0.0375 µg/mL	0.65	0.644	0.635
S. aureus Newman [2], first compound 0.075 µg/mL	0.658	–	–
S. pneumoniae D39V [3], first compound 0.125 µg/mL	≥ 1	≥ 1	≥ 1
S. pneumoniae D39V [3], first compound 0.25 µg/mL	0.9	0.923	0.91

Settings	Bliss interaction score
B. subtilis 168 [4]	-0.0792
S. aureus DSM 20231	-0.053
S. aureus Newman [5]	0.0759
S. pneumoniae D39V [6]	0.0982
